Results on 14 compounds are retold here after ChEMBL document CHEMBL1201862, “PubChem BioAssay data set” (2004).

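Results reflect a 48-hour exposure of cells in 96-well plates to compound at five concentrations. Abbreviation: GI50, concentration required for 50% inhibition of growth.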 Calls of active or inactive are those of the source. Rule as the data show it: active = GI50 up to about 1.1 µM and inactive = higher.

Some test systems named below: HCC 2998; HCT-15; IGROV-1; K562; NCI-H226; NCI-H23; NCI-H522; OVCAR-3; RXF 393; SF-295; SK-MEL-5; SK-OV-3; SNB-19; SR; SW-620; UACC-257.
Test in all cases: NCI tumour cell line growth inhibition, 48 h

As for `Cn1nc2ccc3nccc(NCCNCCO)c3c2n1`, the GI50 was 40.6 µM (inactive) in the assay on HCC 2998; 44.3 µM in the assay on HCT-15; 68.4 µM (inactive) in the assay with IGROV-1; 73.5 µM (inactive) in the assay on K562; 41.2 µM (inactive) in the assay on NCI-H226; 39.4 µM (inactive) in the assay on NCI-H23. Also, the GI50 in the assay with NCI-H522 is 37.5 µM (inactive); in the assay on OVCAR-3 it was 38.3 µM (inactive); in the assay on RXF 393, 23.7 µM (inactive); with SF-295, 39.3 µM (inactive); in the assay on SK-MEL-5 it was 56.5 µM (inactive); with SK-OV-3, 34.1 µM (inactive). For the same compound, the GI50 is 73.5 µM (inactive) with SNB-19, 10 µM (inactive) in the assay with SR, 29.4 µM (inactive) with SW-620 and 27.3 µM (inactive) with UACC-257.
With `CCOc1ccccc1Nc1nc(C)c(C(=O)CC(=O)C(=O)Nc2ccccc2)s1`, the GI50 in the assay with HCC 2998 is 52.7 µM (inactive); with HCT-15 it was 41.9 µM; with IGROV-1, > 100 µM (inactive); in the assay with K562, 34.8 µM (inactive); with NCI-H226 it was 24.3 µM (inactive); with NCI-H23, 36.2 µM (inactive). Further, the GI50 in the assay with NCI-H522 was 30.9 µM (inactive); in the assay on OVCAR-3, 22.2 µM (inactive); with RXF 393, 99.1 µM (inactive); in the assay with SF-295, 54.1 µM (inactive); in the assay with SK-MEL-5, 49.2 µM (inactive); in the assay with SK-OV-3 it was > 100 µM (inactive). For the same compound, the GI50 in the assay with SNB-19 was 91.8 µM (inactive); in the assay on SR it was 49.7 µM (inactive); in the assay on SW-620 it was 72.4 µM (inactive); with UACC-257 it was 50.9 µM (inactive).
In the case of `CC1(OCc2ccccc2)C(=O)N2C1N(C(=O)OCc1ccccc1)CC2(C)C` (configuration not stated), the GI50 was > 100 µM (inactive) in the assay on HCC 2998; 68.1 µM in the assay with HCT-15; 57.3 µM (inactive) in the assay on IGROV-1; 42.8 µM (inactive) in the assay on K562; 41.4 µM (inactive) with NCI-H226; 35.1 µM (inactive) with NCI-H23. In addition, the GI50 was > 100 µM (inactive) with OVCAR-3; 67.5 µM (inactive) in the assay with RXF 393; 38.5 µM (inactive) with SF-295; 17.9 µM (inactive) with SK-MEL-5; 54.2 µM (inactive) in the assay with SNB-19; 30.5 µM (inactive) in the assay on SR. For the same compound, the GI50 is > 100 µM (inactive) in the assay with SW-620 and 36.6 µM (inactive) with UACC-257.
`C=CC(Br)(CBr)CCC(Br)C(C)(C)Br` (configuration not stated): the GI50 with HCT-15 was 16.5 µM; in the assay with IGROV-1 it was 15.2 µM (inactive); in the assay with K562, 17.3 µM (inactive); in the assay with NCI-H226, 18.1 µM (inactive); with NCI-H23 it was 15.7 µM (inactive); in the assay on NCI-H522 it was 15.8 µM (inactive). The GI50 was 14.7 µM (inactive) in the assay with RXF 393; 4.42 µM (inactive) in the assay on SF-295; 14.5 µM (inactive) in the assay on SK-MEL-5; 19.4 µM (inactive) with SK-OV-3; 3.81 µM (inactive) in the assay with SR; 13.7 µM (inactive) with SW-620. In addition, the GI50 in the assay on UACC-257 is 13.9 µM (inactive).
For the compound `CCOC(=O)C(C)(C)Oc1ccc2c(-c3ccc(Cl)cc3)c(-c3ccc(Cl)cc3)c(=O)oc2c1`, the GI50 in the assay with HCC 2998 is > 100 µM (inactive); with HCT-15, above 100 µM; in the assay on IGROV-1, > 100 µM (inactive); with K562, > 100 µM (inactive); in the assay on NCI-H226, 62.2 µM (inactive); in the assay on NCI-H23 it was > 100 µM (inactive). Further, the GI50 in the assay with OVCAR-3 was > 100 µM (inactive); in the assay on RXF 393 it was 93.8 µM (inactive); in the assay with SF-295, > 100 µM (inactive); in the assay on SK-MEL-5 it was 98.2 µM (inactive); in the assay on SNB-19, > 100 µM (inactive); with SR, > 100 µM (inactive). Also, the GI50 in the assay with SW-620 and in the assay on UACC-257 was > 100 µM (inactive) throughout.
Regarding `O=[N+]([O-])c1ccc(-c2ccc(C3=Nn4c(CNc5ccccc5Cl)nnc4SC3)o2)cc1`, the GI50 with HCC 2998 was > 100 µM (inactive); in the assay with HCT-15, 12.9 µM; in the assay on IGROV-1 it was > 100 µM (inactive); with K562, 58.3 µM (inactive); in the assay with NCI-H226, > 100 µM (inactive); in the assay on NCI-H23, 87.9 µM (inactive). Further, the GI50 in the assay on NCI-H522, in the assay with OVCAR-3, in the assay with SF-295, in the assay on SK-OV-3, in the assay with SNB-19 and in the assay on SR was > 100 µM (inactive) in each case. The GI50 with SW-620 and in the assay with UACC-257 was > 100 µM (inactive) throughout.
Turning to `Cn1c(=O)ccc2cc(C(=O)c3ccccc3)ccc21`, the GI50 is > 100 µM (inactive) in the assay with HCC 2998; 53.3 µM in the assay on HCT-15; 24.7 µM (inactive) with IGROV-1; 44.1 µM (inactive) with K562; 21.2 µM (inactive) in the assay on NCI-H226; 55 µM (inactive) with NCI-H23. The GI50 with NCI-H522 was 20.4 µM (inactive); with OVCAR-3 it was 44.4 µM (inactive); in the assay on SF-295, 79.3 µM (inactive); in the assay on SK-MEL-5, 22.8 µM (inactive); with SK-OV-3, > 100 µM (inactive); with SNB-19, 68.1 µM (inactive). For the same compound, the GI50 with SW-620 was > 100 µM (inactive).
In the case of `CC(=O)N1CCC2(C=Nc3ccccc32)CC1`, the GI50 was > 100 µM (inactive) in the assay with HCC 2998; above 100 µM with HCT-15; > 100 µM (inactive) in the assay with IGROV-1; > 100 µM (inactive) in the assay on K562; > 100 µM (inactive) in the assay on NCI-H23; > 100 µM (inactive) in the assay with OVCAR-3. Besides, the GI50 in the assay on SF-295, with SK-MEL-5, in the assay with SK-OV-3, in the assay with SW-620 and in the assay on UACC-257 was > 100 µM (inactive) in each case.
Take `COc1ccc(NC(=O)C2C(=O)N(c3ccc(OC)cc3)C(=O)/C2=N/O)cc1` (configuration not stated): the GI50 was 21 µM (inactive) in the assay with HCC 2998; above 100 µM with HCT-15; 40.1 µM (inactive) in the assay on IGROV-1; > 100 µM (inactive) with K562; 23.8 µM (inactive) with NCI-H226; 43.4 µM (inactive) in the assay with NCI-H23. Also, the GI50 in the assay with NCI-H522 is 22.7 µM (inactive); in the assay with OVCAR-3, 24.7 µM (inactive); with RXF 393, 15.3 µM (inactive); with SF-295, 26.4 µM (inactive); in the assay with SK-OV-3 it was 20.2 µM (inactive); in the assay on SNB-19 it was 29.4 µM (inactive). The GI50 in the assay on SR is > 100 µM (inactive); in the assay on SW-620 it was > 61.9 µM (inactive); in the assay with UACC-257, 41.6 µM (inactive).
For `CCOC(=O)C(C)(C)Oc1ccc2c(-c3ccccc3)cc(=O)oc2c1`, the GI50 with HCC 2998 is 98.4 µM (inactive); in the assay on HCT-15, 31.8 µM; with IGROV-1, 25.1 µM (inactive); in the assay with K562 it was 27.6 µM (inactive); in the assay with NCI-H226, 33.3 µM (inactive); in the assay on NCI-H23, 29 µM (inactive). The GI50 in the assay on OVCAR-3 was 33.9 µM (inactive); in the assay with SF-295 it was 40.9 µM (inactive); in the assay with SK-MEL-5 it was 13.9 µM (inactive); in the assay with SNB-19 it was 42.1 µM (inactive); with SR it was 24.9 µM (inactive); in the assay on SW-620 it was 36.7 µM (inactive). The GI50 in the assay on UACC-257 is 28.7 µM (inactive).
On to `COC(=O)C1Cc2c([nH]c3ccccc23)[C@H](CC(C)C)N1` (some centres not stated), for which the GI50 with HCC 2998, in the assay on IGROV-1, in the assay on K562, in the assay on NCI-H226, in the assay on NCI-H23 and with NCI-H522 was > 100 µM (inactive) throughout. In addition, the GI50 in the assay with OVCAR-3, with RXF 393, in the assay on SF-295, with SK-OV-3, in the assay with SNB-19 and in the assay with SR was > 100 µM (inactive) in each case. In addition, the GI50 in the assay on SW-620 and with UACC-257 was > 100 µM (inactive) in each case.
Regarding `c1ccc2c(c1)N=C(c1cccc3ccccc13)CC(c1ccc3c(c1)OCO3)S2` (configuration not stated), the GI50 in the assay with HCC 2998, in the assay on IGROV-1, with K562, with NCI-H226, with NCI-H23 and with NCI-H522 was > 100 µM (inactive) in each case. Also, the GI50 with OVCAR-3 was > 100 µM (inactive); in the assay on RXF 393, > 100 µM (inactive); with SF-295, 53.6 µM (inactive); in the assay with SK-MEL-5, > 100 µM (inactive); in the assay with SK-OV-3, > 100 µM (inactive); in the assay on SNB-19, > 100 µM (inactive). Moreover, the GI50 in the assay with SR, in the assay on SW-620 and with UACC-257 was > 100 µM (inactive) in each case.
On to `CN(C)CCNC(=O)c1cccc2c1nc(-c1ccc(F)cc1)c1ccccc12`, for which the GI50 in the assay on HCC 2998 is 3.34 µM (inactive); with HCT-15, 2.67 µM; with IGROV-1 it was 2.84 µM (inactive); in the assay with K562 it was 2.44 µM (inactive); in the assay with NCI-H226 it was 2.06 µM (inactive); in the assay with NCI-H23, 5.71 µM (inactive). Further, the GI50 in the assay on OVCAR-3 is 5.58 µM (inactive); with RXF 393 it was 3.2 µM (inactive); with SF-295, 6.05 µM (inactive); with SK-MEL-5, 2.34 µM (inactive); in the assay on SK-OV-3, 8.47 µM (inactive); in the assay on SNB-19, 6.93 µM (inactive). The values for the GI50 with SW-620 and in the assay on UACC-257 were 2.27 µM (inactive) and 2.95 µM (inactive), respectively.
As to `Cc1cccc(C(C)C)c1NC(=O)CCl`, the GI50 is 29.6 µM (inactive) in the assay with HCC 2998; 90.4 µM in the assay with HCT-15; 56.2 µM (inactive) in the assay with K562; > 100 µM (inactive) in the assay on NCI-H226; 22.9 µM (inactive) in the assay with NCI-H23; 15.3 µM (inactive) in the assay with NCI-H522. Besides, the GI50 is 19.1 µM (inactive) in the assay on OVCAR-3; 25.2 µM (inactive) in the assay on RXF 393; 92 µM (inactive) in the assay on SF-295; 91.4 µM (inactive) with SK-MEL-5; 67.8 µM (inactive) in the assay with SK-OV-3; 36.5 µM (inactive) in the assay with SNB-19. Further, the GI50 is 47.8 µM (inactive) with SR, 39.6 µM (inactive) with SW-620 and > 100 µM (inactive) with UACC-257.
